Test results taken from patent US20250320247A1, “NOVEL D-AMINO ACID DERIVATIVE AND PHARMACEUTICAL COMPOSITION COMPRISING SAME” (SENELIX CO., LTD., priority 2022, published 2025).
Non-standard residues stand in square brackets, D forms with d. Residues, ends and D or L forms follow the SMILES beside them.

Tests used:
[1] = test system: corneal damage-induced Sprague-Dawley rats; test: Corneal damage model: corneal fluorescein staining score (NEI grading); assay type: in vivo; settings: 10 μL/eye, 3 times a day; for corneal fluorescein staining score vs normal control group (G1): 6 hours to 5 days, p<0.01; for corneal fluorescein staining score vs induced control (G2): at 6 hours and on days 2 to 6, p<0.001, p<0.01 or p<0.05; for corneal fluorescein staining score vs PBS group (G3): days 3 to 6, p<0.001 or p<0.01
Description: (§1) Corneal damage was induced in pathogen-free (SPF) Sprague-Dawley rats (male, 7 weeks old) [Koatech, Korea]. Specifically, after anesthetizing the rats, a filter paper soaked in 2 μL of 0.1 M NaOH solution was applied to the center of the cornea of the right eye for about 10 seconds, and then washed with physiological saline. The body weight of the corneal damage-induced rats was measured, and they were randomly divided into groups G2 to G6 as shown in Table 2 so that the average body weight of each group was distributed uniformly. G1 is a normal control group in which corneal damage was not induced.
From the day of the corneal damage (day 0), the compound prepared in Example 2 as a test substance (i.e., acetate of the compound of the Chemical Formula 1b, hereinafter referred to as ‘Compound 1b’) was dissolved in physiological saline (PBS) at concentrations of 0.1% and 1% and instilled into the eye of the mice of G4 and G5 at 10 μL/eye, 3 times a day, for 7 days. G2 is an induced control group in which corneal damage was induced. For G3, physiological saline (PBS) was instilled 10 into the eye of the corneal damage-induced rats. For G6 (positive control), Restasis® ophthalmic solution (0.05%, containing cyclosporine) was instilled into the eye of the corneal damage-induced rats.
(§2) Statistical analysis was performed using Prism 7.04 (GraphPad Software Inc., San Diego, CA, USA), and a p-value smaller than 0.05 was judged to be statistically significant.

[2] = test system: dry eye syndrome-induced C57BL/6NHsd mice; test: Dry eye syndrome model: corneal fluorescein staining score (NEI grading); assay type: in vivo; settings: 2 μL/eye, 3 times a day, day 5 to day 10; for corneal fluorescein staining score vs PBS group (G3): p<0.001 or p<0.01; for corneal fluorescein staining score vs normal control (G1): p<0.01 or p<0.05
Description: (§3) Dry eye syndrome was induced in specific pathogen-free (SPF) C57BL/6NHsd mice (male, 7 weeks old) [Koatech, Korea]. Specifically, during the dry eye syndrome induction period (from day −10 to day 0), scopolamine hydrobromide dissolved in physiological saline (PBS) was injected subcutaneously into the back skin of mice at a dose of 0.5 mg/0.2 mL, 4 times a day, for 10 days. After measuring the tear volume of the dry eye syndrome-induced mice, the mice were randomly divided into groups of G2 to G6 as shown in Table 1 so that the average tear volume of each group was distributed uniformly. G1 is a normal control group in which dry eye syndrome was not induced.
(§4) From the day of the induction of dry eye syndrome (day 0), the compound prepared in Example 2 as a test substance (i.e., acetate of the compound of the Chemical Formula 1b, hereinafter referred to as ‘Compound 1b’) was dissolved in physiological saline (PBS) at concentrations of 0.1% and 1% and dropped onto the center of the right cornea of the mice of G4 and G5 3 times a day for 10 days, respectively. G2 is a dry eye syndrome-induced control group. For G3, physiological saline (PBS) was dropped onto the center of the cornea of the right eye of the mice in which dry eye syndrome was induced. For G6 (positive control group), Restasis® ophthalmic solution (0.05%, containing cyclosporine) was dropped onto the center of the cornea of the right eye of the dry eye syndrome-induced mice.
as §2

[3] = test system: IL-1β; test: In-vitro anti-inflammatory test: IL-1β expression by western blotting in LPS-treated macrophages (RAW 264.7); assay type: cell-based; settings: RAW 264.7, LPS 100 ng/ml, test substance 1 μM and 10 μM, 30 minutes, vs LPS-only control
Description: (§5) Lipopolysaccharide (LPS)-treated macrophages (RAW 264.7) were treated with the compounds prepared in Examples 1 and 2 as test substances, respectively, and the change in the production of inflammatory cytokines (TNF-α and IL-1β) was measured by ELISA and western blotting, respectively.
In addition, […] macrophages (RAW 264.7) were dispensed in each well of a 96-well plate together with 0.1 mL of Dulbecco's modified Eagle's medium (DMEM) containing 10% FBS (GIBCO) and 1% penicillin/streptomycin. After incubation for 1 day in a 5% CO2 incubator at 37° C., when the confluency of the cells reached 80% or higher, LPS (100 ng/ml) and the test substance were treated at concentrations of 1 μM and 10 μM, respectively, and incubated for 30 minutes. A control group was treated only with LPS (100 ng/ml) and incubated for 30 minutes. The cells were lysed using an NP40 cell lysis buffer and quantified by Bradford assay. Then, the expression level of IL-1β was measured by western blotting.

[4] = test system: TNF-α; test: In-vitro anti-inflammatory test: TNF-α production by ELISA in LPS-treated macrophages (RAW 264.7); assay type: cell-based; settings: RAW 264.7, LPS 100 ng/ml, test substance 1 μM and 10 μM, 24 hours, vs LPS-only control
Description: as §5
Specifically, 1×10^4 macrophages (RAW 264.7) were dispensed in each well of a 96-well plate together with 0.1 mL of Dulbecco's modified Eagle's medium (DMEM) containing 10% FBS (GIBCO) and 1% penicillin/streptomycin. After incubation for 1 day in a 5% CO2 incubator at 37° C., when the confluency of the cells reached 80% or higher, LPS (100 ng/ml) and the test substance were treated at concentrations of 1 μM and 10 μM, respectively, and incubated for 24 hours. A control group was treated only with LPS (100 ng/ml) and incubated for 24 hours. The supernatant of each test group was prepared as a sample for ELISA analysis. The production of TNF-α was investigated using an ELISA assay kit (ELISA MAX Standard Set Human TNF-α; BioLegend, #430201) and a microplate reader at 450 nm according to the manufacturer's protocol.

[5] = test system: dry eye syndrome-induced C57BL/6NHsd mice; test: Dry eye syndrome model: tear volume by phenol red thread test; assay type: in vivo; settings: 2 μL/eye, 3 times a day; for tear volume level vs normal control group (G1) / tear volume level vs induced control group (G2): days 5 and 10; for tear volume level vs induced control group (G2): p<0.001, p<0.01 or p<0.05
Description: as §3, §4
Tear volume was measured by phenol red thread (PRT) test. Specifically, on days 5 and 10 after the start of the administration of the test substance, a phenol red thread was placed in the lateral canthus of the eye for 20 seconds and then tear volume (mm) was measured.
as §2

[6] = test system: dry eye syndrome-induced C57BL/6NHsd mice; test: Dry eye syndrome model: histopathological examination (H&E) of inflammation; assay type: in vivo; settings: day 10; for level of inflammation and fibrosis vs G2 and G3 (histopathology): 2 μL/eye, 3 times a day for 10 days, p<0.001 or p<0.05
Description: as §3, §4
On the day of autopsy (day 10), the animal was euthanized and the eyeball was removed to include the conjunctiva and fixed in a 10% neutral buffered formalin solution. Samples for histopathological examination were prepared through the processes of trimming, dehydration, paraffin embedding and thin-sectioning of the fixed tissue, followed by hematoxylin and eosin (H&E) staining. Then, the infiltration of inflammatory cells into the cornea, conjunctiva and anterior chamber was evaluated by optical microscopy (Olympus BX53, Japan). The inflammation of the cornea and conjunctiva was assessed according to the known method. The scoring criteria were as follows. Scores: 0 (normal), 1 (mild), 2 (moderate), 3 (severe).
as §2

[7] = test system: corneal damage-induced Sprague-Dawley rats; test: Corneal damage model: histopathological examination (H&E) of inflammatory cell infiltration; assay type: in vivo; settings: 10 μL/eye, 3 times a day for 7 days, day 7
Description: as §1, with “induced. […]” for “induced.”
On the day of autopsy (day 7), the animal was euthanized, and the eyeball was removed to include the conjunctiva and fixed in a 10% neutral buffered formalin solution. […] Then, the infiltration of inflammatory cells into the cornea, conjunctiva and anterior chamber was evaluated by optical microscopy (Olympus BX53, Japan). The infiltration of inflammatory cells into the corneal stroma and anterior chamber was evaluated according to the known method. […]

Structure (SMILES): NC(=O)C[C@@H](NC(=O)[C@H](N)CC(=O)O)C(=O)N[C@H](CC(=O)O)C(N)=O [Compound 1b] (H-[dD]-[dN]-[dD]-NH2)
- corneal fluorescein staining score vs normal control group (G1) ([1]; G4: 0.1% in PBS): statistically significantly higher than that of the normal control group (G1)
- corneal fluorescein staining score vs induced control (G2) ([1]; G4: 0.1% in PBS): significantly lower than that of G2
- corneal fluorescein staining score vs PBS group (G3) ([1]; G4: 0.1% in PBS): significantly lower than that of G3
- corneal fluorescein staining score vs normal control group (G1) ([1]; G5: 1% in PBS): statistically significantly higher than that of the normal control group (G1)
- corneal fluorescein staining score vs induced control (G2) ([1]; G5: 1% in PBS): significantly lower than that of G2
- corneal fluorescein staining score vs PBS group (G3) ([1]; G5: 1% in PBS): significantly lower than that of G3
- corneal fluorescein staining score vs induced control (G2) ([2]; G4: 0.1% in PBS): significantly lower than that of G2
- corneal fluorescein staining score vs PBS group (G3) ([2]; G4: 0.1% in PBS): statistically significantly lower than that of G3
- corneal fluorescein staining score vs normal control (G1) ([2]; G4: 0.1% in PBS): statistically significantly higher than that of G1
- corneal fluorescein staining score vs induced control (G2) ([2]; G5: 1% in PBS): significantly lower than that of G2
- corneal fluorescein staining score vs PBS group (G3) ([2]; G5: 1% in PBS): statistically significantly lower than that of G3
- corneal fluorescein staining score vs normal control (G1) ([2]; G5: 1% in PBS): statistically significantly higher than that of G1
- expression of inflammatory cytokine IL-1β [3]: inhibited in a concentration-dependent manner
- secretion of inflammatory cytokine TNF-α [4]: inhibited in a concentration-dependent manner
- tear volume level vs PBS group (G3) ([5]; G4: 0.1% in PBS, day 10, p<0.001): significantly higher than that of G3
- tear volume level vs normal control group (G1) ([5]; G4: 0.1% in PBS, p<0.001): statistically significantly lower than that of the normal control group (G1)
- tear volume level vs induced control group (G2) ([5]; G4: 0.1% in PBS): significantly higher than that of G2
- tear volume level vs PBS group (G3) ([5]; G5: 1% in PBS, day 5, p<0.01): statistically significantly higher than that of G3
- tear volume level vs PBS group (G3) ([5]; G5: 1% in PBS, day 10, p<0.001): significantly higher than that of G3
- tear volume level vs normal control group (G1) ([5]; G5: 1% in PBS, p<0.001): statistically significantly lower than that of the normal control group (G1)
- tear volume level vs induced control group (G2) ([5]; G5: 1% in PBS): significantly higher than that of G2
- inflammation in the cornea and conjunctiva (histopathology) ([6]; 0.1% test substance-administered group): no inflammation was observed
- inflammation in the cornea and conjunctiva (histopathology) ([6]; 1% test substance-administered group): no inflammation was observed
- level of inflammation and fibrosis vs G2 and G3 (histopathology) ([6]; G4: 0.1% in PBS): significantly lower as compared to G2 and G3
- level of inflammation and fibrosis vs G2 and G3 (histopathology) ([6]; G5: 1% in PBS): significantly lower as compared to G2 and G3
- degree of infiltration of inflammatory cells into corneal keratocytes and anterior chamber vs G2 and G3 ([7]; G4: 0.1% in PBS): statistically significantly lower
- degree of infiltration of inflammatory cells into corneal keratocytes and anterior chamber vs G2 and G3 ([7]; G5: 1% in PBS): statistically significantly lower

Structure (SMILES): NC(=O)C[C@@H](NC(=O)[C@H](N)CC(=O)O)C(=O)N[C@H](CC(=O)O)C(=O)O [Chemical Formula 1a] (H-[dD]-[dN]-[dD]-OH)
- expression of inflammatory cytokine IL-1β [3]: inhibited in a concentration-dependent manner
- secretion of inflammatory cytokine TNF-α [4]: inhibited in a concentration-dependent manner
